The NIST ThermoML archive (doi:10.1021/acs.jced.5b00978)
Where “and” joins values, the source holds several entries; their conditions need not be identical. Equal entries are not always repeated.

Tests used:
[1] = for Normal melting temperature: DTA
[2] = Molar enthalpy of transition or fusion; conditions: Crystal; DSC

COC(=O)c1ccc(C=O)cc1 [methyl 4-formylbenzoate]
[1]
Conditions	vapor or sublimation pressure [kPa]
303.1 K, Crystal, Closed cell (Static) method	0.00069
305.04 K, Crystal, Closed cell (Static) method	0.00086
307.04 K, Crystal, Closed cell (Static) method	0.00109
309.04 K, Crystal, Closed cell (Static) method	0.00137
311.05 K, Crystal, Closed cell (Static) method	0.00173
313.01 K, Crystal, Closed cell (Static) method	0.00216
314.99 K, Crystal, Closed cell (Static) method	0.00268
317.07 K, Crystal, Closed cell (Static) method	0.00335
319.02 K, Crystal, Closed cell (Static) method	0.00412
321.01 K, Crystal, Closed cell (Static) method	0.00511
323.02 K, Crystal, Closed cell (Static) method	0.00635
324.99 K, Crystal, Closed cell (Static) method	0.0078
326.93 K, Metastable liquid, Closed cell (Static) method	0.01165
326.97 K, Crystal, Closed cell (Static) method	0.00965
328.93 K, Metastable liquid, Closed cell (Static) method	0.01357
328.97 K, Crystal, Closed cell (Static) method	0.01165
330.9 K, Metastable liquid, Closed cell (Static) method	0.01573
330.92 K, Crystal, Closed cell (Static) method	0.01405
332.84 K, Metastable liquid, Closed cell (Static) method	0.01823
334.84 K, Metastable liquid, Closed cell (Static) method	0.02122
336.84 K, Closed cell (Static) method, Liquid	0.02458
338.85 K, Closed cell (Static) method, Liquid	0.02803
340.8 K, Closed cell (Static) method, Liquid	0.03252
342.76 K, Closed cell (Static) method, Liquid	0.0371
344.76 K, Closed cell (Static) method, Liquid	0.04283
346.67 K, Closed cell (Static) method, Liquid	0.04856
348.71 K, Closed cell (Static) method, Liquid	0.05584
350.65 K, Closed cell (Static) method, Liquid	0.06347
352.66 K, Closed cell (Static) method, Liquid	0.07223
354.52 K, Closed cell (Static) method, Liquid	0.08123
356.6 K, Closed cell (Static) method, Liquid	0.09314
358.58 K, Closed cell (Static) method, Liquid	0.1051
360.55 K, Closed cell (Static) method, Liquid	0.1182
362.49 K, Closed cell (Static) method, Liquid	0.1338
364.51 K, Closed cell (Static) method, Liquid	0.1519
366.47 K, Closed cell (Static) method, Liquid	0.1698
368.46 K, Closed cell (Static) method, Liquid	0.1902
370.41 K, Closed cell (Static) method, Liquid	0.2138
372.39 K, Closed cell (Static) method, Liquid	0.2395
374.28 K, Closed cell (Static) method, Liquid	0.2657
376.36 K, Closed cell (Static) method, Liquid	0.298
378.24 K, Closed cell (Static) method, Liquid	0.3306
380.3 K, Closed cell (Static) method, Liquid	0.3693
382.21 K, Closed cell (Static) method, Liquid	0.4085
384.22 K, Closed cell (Static) method, Liquid	0.4558
386.18 K, Closed cell (Static) method, Liquid	0.5028
388.17 K, Closed cell (Static) method, Liquid	0.562

Conditions	Normal melting temperature [°C]
[1], Crystal	62.1

Conditions	Molar enthalpy of transition or fusion [kcal/mol]
[2]	5.11

COC(=O)c1ccc([N+](=O)[O-])cc1 [methyl p-nitrobenzoate]
[1]
Conditions	vapor or sublimation pressure [kPa]
319.01 K, Crystal, Closed cell (Static) method	0.00074
321.07 K, Crystal, Closed cell (Static) method	0.00092
322.98 K, Crystal, Closed cell (Static) method	0.00115
325.03 K, Crystal, Closed cell (Static) method	0.00144
326.97 K, Crystal, Closed cell (Static) method	0.00177
328.99 K, Crystal, Closed cell (Static) method	0.0022
330.91 K, Crystal, Closed cell (Static) method	0.00265
332.94 K, Crystal, Closed cell (Static) method	0.00333
334.86 K, Crystal, Closed cell (Static) method	0.00404
336.9 K, Crystal, Closed cell (Static) method	0.00497
338.83 K, Crystal, Closed cell (Static) method	0.00597
340.86 K, Crystal, Closed cell (Static) method	0.00734
342.77 K, Crystal, Closed cell (Static) method	0.00878
344.81 K, Crystal, Closed cell (Static) method	0.01073
346.71 K, Crystal, Closed cell (Static) method	0.01286
348.76 K, Crystal, Closed cell (Static) method	0.01564
350.59 K, Crystal, Closed cell (Static) method	0.01843
352.71 K, Crystal, Closed cell (Static) method	0.02255
354.57 K, Crystal, Closed cell (Static) method	0.02656
356.66 K, Crystal, Closed cell (Static) method	0.03213
358.51 K, Crystal, Closed cell (Static) method	0.03767
360.47 K, Metastable liquid, Closed cell (Static) method	0.05433
360.61 K, Crystal, Closed cell (Static) method	0.04542
362.46 K, Metastable liquid, Closed cell (Static) method	0.0615
362.47 K, Crystal, Closed cell (Static) method	0.05331
364.43 K, Metastable liquid, Closed cell (Static) method	0.06971
364.55 K, Crystal, Closed cell (Static) method	0.06362
370.48 K, Closed cell (Static) method, Liquid	0.1019
372.46 K, Closed cell (Static) method, Liquid	0.1149
374.39 K, Closed cell (Static) method, Liquid	0.1281
376.4 K, Closed cell (Static) method, Liquid	0.1446
378.37 K, Closed cell (Static) method, Liquid	0.1615
380.36 K, Closed cell (Static) method, Liquid	0.1809
382.3 K, Closed cell (Static) method, Liquid	0.2008
384.27 K, Closed cell (Static) method, Liquid	0.2241
386.24 K, Closed cell (Static) method, Liquid	0.2502
388.24 K, Closed cell (Static) method, Liquid	0.2792
390.19 K, Closed cell (Static) method, Liquid	0.3091
392.19 K, Closed cell (Static) method, Liquid	0.3449
394.11 K, Closed cell (Static) method, Liquid	0.3796
396.19 K, Closed cell (Static) method, Liquid	0.4248
398.07 K, Closed cell (Static) method, Liquid	0.4655
400.05 K, Closed cell (Static) method, Liquid	0.5141
401.96 K, Closed cell (Static) method, Liquid	0.5665
403.96 K, Closed cell (Static) method, Liquid	0.6244
405.95 K, Closed cell (Static) method, Liquid	0.6894
407.87 K, Closed cell (Static) method, Liquid	0.7541
409.86 K, Closed cell (Static) method, Liquid	0.8302
411.81 K, Closed cell (Static) method, Liquid	0.9078
413.78 K, Closed cell (Static) method, Liquid	0.9952
415.75 K, Closed cell (Static) method, Liquid	1.088

Conditions	Normal melting temperature [°C]
[1], Crystal	96.2

Conditions	Molar enthalpy of transition or fusion [kcal/mol]
[2]	5.83

CNc1ccc(C(=O)OC)cc1 [methyl p-(methylamino)benzoate]
[1]
Conditions	vapor or sublimation pressure
317.09 K, Crystal, Calculated from knudsen effusion weight loss	7.8e-05 kPa
319.16 K, Crystal, Calculated from knudsen effusion weight loss	0.000101 kPa and 0.000103 kPa
321.19 K, Crystal, Calculated from knudsen effusion weight loss	0.000131 kPa and 0.00013 kPa
323.08 K, Crystal, Calculated from knudsen effusion weight loss	0.000167 kPa and 0.000165 kPa and 0.000168 kPa
325.15 K, Crystal, Calculated from knudsen effusion weight loss	0.000213 kPa and 0.000207 kPa and 0.000215 kPa
327.18 K, Crystal, Calculated from knudsen effusion weight loss	0.000263 kPa and 0.000266 kPa and 0.000271 kPa
329.12 K, Crystal, Calculated from knudsen effusion weight loss	0.000338 kPa and 0.000335 kPa and 0.000341 kPa
331.22 K, Crystal, Calculated from knudsen effusion weight loss	0.000427 kPa and 0.000425 kPa and 0.000433 kPa
332.9 K, Crystal, Closed cell (Static) method	0.00054 kPa
333.17 K, Crystal, Calculated from knudsen effusion weight loss	0.000537 kPa and 0.000535 kPa and 0.00054 kPa
334.88 K, Crystal, Closed cell (Static) method	0.00068 kPa
335.09 K, Crystal, Calculated from knudsen effusion weight loss	0.00068 kPa and 0.000688 kPa and 0.000691 kPa
336.87 K, Crystal, Closed cell (Static) method	0.00086 kPa
337.17 K, Crystal, Calculated from knudsen effusion weight loss	0.000869 kPa and 0.000862 kPa and 0.000855 kPa
338.87 K, Crystal, Closed cell (Static) method	0.00108 kPa
339.18 K, Crystal, Calculated from knudsen effusion weight loss	0.001064 kPa and 0.00106 kPa and 0.001061 kPa
340.85 K, Crystal, Closed cell (Static) method	0.00134 kPa
342.84 K, Crystal, Closed cell (Static) method	0.00167 kPa
344.81 K, Crystal, Closed cell (Static) method	0.00207 kPa
346.8 K, Crystal, Closed cell (Static) method	0.00257 kPa
348.77 K, Metastable liquid, Closed cell (Static) method	0.00482 kPa
348.79 K, Crystal, Closed cell (Static) method	0.00317 kPa
350.76 K, Metastable liquid, Closed cell (Static) method	0.0056 kPa
350.81 K, Crystal, Closed cell (Static) method	0.0039 kPa
352.75 K, Metastable liquid, Closed cell (Static) method	0.00655 kPa
352.76 K, Crystal, Closed cell (Static) method	0.00477 kPa
354.74 K, Crystal, Closed cell (Static) method	0.00575 kPa
354.74 K, Metastable liquid, Closed cell (Static) method	0.0076 kPa
356.72 K, Metastable liquid, Closed cell (Static) method	0.00876 kPa
356.73 K, Crystal, Closed cell (Static) method	0.00703 kPa
358.69 K, Metastable liquid, Closed cell (Static) method	0.01017 kPa
358.71 K, Crystal, Closed cell (Static) method	0.0085 kPa
360.67 K, Metastable liquid, Closed cell (Static) method	0.01173 kPa
360.69 K, Crystal, Closed cell (Static) method	0.01033 kPa
362.67 K, Metastable liquid, Closed cell (Static) method	0.01351 kPa
364.65 K, Metastable liquid, Closed cell (Static) method	0.01561 kPa
366.64 K, Metastable liquid, Closed cell (Static) method	0.01788 kPa
368.55 K, Closed cell (Static) method, Liquid	0.02015 kPa
370.6 K, Closed cell (Static) method, Liquid	0.02331 kPa
372.58 K, Closed cell (Static) method, Liquid	0.02669 kPa
374.55 K, Closed cell (Static) method, Liquid	0.03049 kPa
376.53 K, Closed cell (Static) method, Liquid	0.03459 kPa
378.5 K, Closed cell (Static) method, Liquid	0.03935 kPa
380.51 K, Closed cell (Static) method, Liquid	0.04446 kPa
382.47 K, Closed cell (Static) method, Liquid	0.05044 kPa
384.46 K, Closed cell (Static) method, Liquid	0.05682 kPa
386.45 K, Closed cell (Static) method, Liquid	0.06435 kPa
388.41 K, Closed cell (Static) method, Liquid	0.07241 kPa
390.4 K, Closed cell (Static) method, Liquid	0.0815 kPa
392.35 K, Closed cell (Static) method, Liquid	0.09154 kPa

Conditions	Normal melting temperature [°C]
[1], Crystal	93

Conditions	Molar enthalpy of transition or fusion [kcal/mol]
[2]	6.57

COC(=O)c1ccc(C#N)cc1 [methyl p-cyanobenzoate]
[1], Closed cell (Static) method
Conditions	vapor or sublimation pressure [kPa]
303.93 K, Crystal	0.00066
306.95 K, Crystal	0.00092
309.92 K, Crystal	0.0013
312.93 K, Crystal	0.00183
315.91 K, Crystal	0.00252
318.88 K, Crystal	0.00347
321.94 K, Crystal	0.00479
324.93 K, Crystal	0.00649
327.89 K, Crystal	0.00872
330.89 K, Crystal	0.01165
333.86 K, Crystal	0.01562
336.84 K, Crystal	0.02058
339.83 K, Liquid	0.02686
342.81 K, Liquid	0.0331
345.8 K, Liquid	0.04054
348.76 K, Liquid	0.04932
351.75 K, Liquid	0.06007
354.72 K, Liquid	0.07314
357.79 K, Liquid	0.08912
360.66 K, Liquid	0.1059
363.64 K, Liquid	0.1276
366.47 K, Liquid	0.1508
369.42 K, Liquid	0.1793
372.4 K, Liquid	0.2131
375.39 K, Liquid	0.2508
378.3 K, Liquid	0.2957
381.25 K, Liquid	0.3487
384.19 K, Liquid	0.4061
387.18 K, Liquid	0.4767
390.14 K, Liquid	0.5554
393.05 K, Liquid	0.644

Conditions	Normal melting temperature [°C]
[1], Crystal	65.1

Conditions	Molar enthalpy of transition or fusion [kcal/mol]
[2]	5.21
